Assay [1] has as its system vasospasm, central artery and vein of the ear. As to the kind of experiment: Pilot study of 0.4% PGE1 topical composition on adrenaline-induced ear vasospasm (Example 5, FIG. 1-2). The class given is in vivo, New Zealand rabbit. The conditions noted are these: 1 mg of PGE1 dissolved in 75% aqueous ethanol on skin of right ear. From the text:
The objects of these pilot studies were designed to explore the efficacy of a specially formulated 0.4 wt % PGE1 topical composition for treating vasospasm and skin disorders that result from insufficient local blood circulation. Twenty four adult New Zealand rabbit, 3-4 kg, were divided into three groups: 12 rabbits were assigned into a Test Study Group; 6 rabbits were assigned into a PGE1 Control Group and 6 rabbits were assigned into an Alcohol Control Group. One rabbit of each Group was selected to enter the study at the same time for each of the first six studies.
The rabbit's right ear was selected to be the test application site, while its left ear was observed as a control. An adrenaline solution (0.2 ml of a 0.1% (1:1000) solution) was injected into the area adjacent to both the central artery and vein near the bottom of both ears. Classic vasospasm appeared five minutes later on both ears. One of three test substances, 125 mg of a 0.4% PGE1 topical composition containing 1.8% DDAIP HCl was applied to a 2 cm×2 cm area of skin adjacent to the central artery and vein of the right ear.
Vasospasm was induced in the same way in both ears of the rabbits of the PGE1 Control Group and the Alcohol Control Group. Similarly, 1 mg of PGE1 dissolved in 75% aqueous ethanol, or the 75% aqueous ethanol vehicle alone were applied to the right ears of the rabbits of the PGE1 Control Group and the Alcohol Control Group respectively. The time course of changes in blood vessel diameter was observed.

The subject of assay [2] is vasospasm induced by adrenaline hydrochloride, femoral artery. As to the kind of experiment: Ultrasonography of blood flow volume in surgically exposed femoral artery with adrenaline-induced vasospasm (Example 4). The settings on record: four drops of papaverine (30 mg/ml) on exposed femoral artery; for The Average Time Required To Return To The Initial Blood Flow Volume: 120 minute test. The assay is classed as in vivo, New Zealand Rabbits. The method, then:
Rabbits were obtained and anesthetized as described in Example 2, above. A total of 70 rabbits were randomly assigned into 7 groups with 10 rabbits per group. Blood flow velocity and vascular cross section area were measured and analyzed using a Toshiba Multifunction Ultrasonography 6000 system. A portion of femoral artery about 2 cm long was exposed through a 3 cm incision. […] The entire test was performed under a constant room temperature of 20 degrees Celsius. About ten minutes after the application of adrenaline hydrochloride, the operating field was irrigated with sterile saline topically and dried with sterile pad. […] The incision was closed after the application of the topical composition. The ultrasonic probe was put at a fixed location 1 cm from the incision. […] In general, blood flow volume=blood flow velocity×vascular cross section The data were expressed as average±SD; t-test was used for statistical analysis. The averaged data are reported in Table 9, below, as instantaneous blood flow volume±standard deviation (SD), N=10, and shown graphically in FIG. 6.

Molecules are shown by their SMILES.

Regarding `CCCCC[C@H](O)/C=C/[C@H]1[C@H](O)CC(=O)[C@@H]1CCCCCCC(=O)O` [PGE1 dissolved in 75% aqueous ethanol, Prostaglandin E1], in assay [1], the “changes of the vascular bed of the right ear” value is recorded as “No significant remaining changes were observed”, the “duration of the dilation effect” value worked out at 60 min, the “time after application at which the vasospasm was alleviated slightly” value is 20 min and the “time until vessels of the right ear were dilated” value was found to be 30 min.

As for `COc1ccc(Cc2nccc3cc(OC)c(OC)cc23)cc1OC` [Papaverine, papaverine], the “The accumulated blood flow volume from 10 minutes after vasospasm to 120 minutes after drug administration” value is reported as 2341 ± 94.87 cm^3 in assay [2] and “a slightly greater effect that was comparable to that produced by composition comprising 80 μg PGE1” in assay [2] (listed as papaverine). Further, the “instantaneous blood flow volume” value is 319 ± 13.27 mm^3/s in assay [2] (5 min after Drug); 107 ± 4.11 mm^3/s in assay [2] (5 min after Vasospasm (before drug)); 358 ± 13.95 mm^3/s in assay [2] (10 min after Drug); 86 ± 4.76 mm^3/s in assay [2] (10 min after Vasospasm (before drug)); 402 ± 18.44 mm^3/s in assay [2] (15 min after Drug); 435 ± 17.76 mm^3/s in assay [2] (30 min after Drug). Besides, the “instantaneous blood flow volume” value in assay [2] (60 min after Drug) is on record as 296 ± 12.58 mm^3/s; in assay [2] (90 min after Drug), 287 ± 11.96 mm^3/s; in assay [2] (120 min after Drug), 274 ± 10.88 mm^3/s; in assay [2] (Normal Condition (before drug)), 325 ± 9.80 mm^3/s. Besides, the “The Average Time Required To Return To The Initial Blood Flow Volume” value in assay [2] is 5 min; in assay [2] (listed as papaverine), “produced recovery of blood flow volume”.

The record behind these values is patent US8632813B2, “Prostaglandin compositions and methods for the treatment of vasospasm” (Nexmed (Holdings), Inc., priority 2003, dated 2014).
